For one experiment, the target named is T1, histamine H2 -receptor (Cavia porcellus, UniProt P47747).
T1 construct: isolated portion of the guinea pig right atrium is secured under tension; from tissue; host or cells: isolated guinea pig right atrium
Kind of experiment: guinea pig atrium test (histamine H2-antagonist activity in vitro). The note with it: isolated guinea pig right atrium, histamine-stimulated rate of beating, 60 min contact, 37° C., Schild plot; read-out: pA2 value (converted). Type of experiment: cell-based. As to the method:
The histamine H2 -antagonist activity of the compounds of formula (1) can be determined in vitro in the guinea pig atrium test. In this test a spontaneously beating isolated portion of the guinea pig right atrium is secured under tension (300 mg) between an anchorage and a transducer in a 15 ml tissue bath and immersed in McEwens solution with constant aeration at a temperature of 37° C. The output from the transducer is amplified. Output is in turn fed to a flat bed recorder. Measured amounts of histamine are added to the tissue bath so that the histamine concentration increases step-wise until the rate of beating reaches a maximum. The tissue bath is washed out and filled with fresh McEwens solution containing compound under test. The solution is left in contact with the tissue for 60 min. and measured amounts of histamine are added again until a maximum rate is recorded. The assay is repeated with increasing concentrations of test compound and the dose of histamine giving 50% of maximum rate is noted. A dose ratio (DR) was calculated by comparing the concentrations of histamine required to produce 50% maximum response in the absence and in the presence of the antagonist. A plot of Log DR-1 against Log D (the concentration of compound under test) is made and the point of intersection with the Log (DR-1) ordinate is taken as the measure of the activity (pA2 value).

Another experiment addresses T2, histamine H1 -receptor (Cavia porcellus, UniProt P31389).
T2 construct: an isolated portion of the guinea pig ileum is secured under tension; from tissue; host or cells: isolated guinea pig ileum
The experiment in a line: guinea pig ileum test (histamine H1-antagonist activity in vitro). Type of experiment: cell-based. The note with it: isolated guinea pig ileum, histamine-induced contraction, 8 min contact, 30° C., Schild plot; read-out: pA2 value (converted). The method, then:
In this test an isolated portion of the guinea pig ileum is secured under tension (500 mg) between an anchorage and a transducer in a 10 ml tissue bath and immersed in magnesium free Tyrode solution with constant aeration at a temperature of 30° C. The output from the transducer is amplified. The amplified output is in turn fed to a flat bed recorder. Measured amounts of histamine are added to the tissue bath so that the histamine concentration increases step-wise until the force of the contraction reaches a maximum. The tissue bath is washed out and filled with fresh magnesium free Tyrode solution containing compound under test. The solution is left in contact with the tissue for 8 min. and measured amounts of histamine are added again until a maximum contraction is recorded. The assay is repeated with increasing concentrations of test compound and the dose of histamine giving 50% of maximum contraction is noted. A dose ratio (DR) was calculated by comparing the concentrations of histamine required to produce 50% maximum response in the absence and in the presence of the antagonist. A plot of Log DR-1 against Log D (the concentration of compound under test) is made and the point of intersection with the Log (DR-1) ordinate is taken as the measure of the activity (pA2 value).

The structures appear in SMILES notation.

T2 sequence (P31389 whole entry): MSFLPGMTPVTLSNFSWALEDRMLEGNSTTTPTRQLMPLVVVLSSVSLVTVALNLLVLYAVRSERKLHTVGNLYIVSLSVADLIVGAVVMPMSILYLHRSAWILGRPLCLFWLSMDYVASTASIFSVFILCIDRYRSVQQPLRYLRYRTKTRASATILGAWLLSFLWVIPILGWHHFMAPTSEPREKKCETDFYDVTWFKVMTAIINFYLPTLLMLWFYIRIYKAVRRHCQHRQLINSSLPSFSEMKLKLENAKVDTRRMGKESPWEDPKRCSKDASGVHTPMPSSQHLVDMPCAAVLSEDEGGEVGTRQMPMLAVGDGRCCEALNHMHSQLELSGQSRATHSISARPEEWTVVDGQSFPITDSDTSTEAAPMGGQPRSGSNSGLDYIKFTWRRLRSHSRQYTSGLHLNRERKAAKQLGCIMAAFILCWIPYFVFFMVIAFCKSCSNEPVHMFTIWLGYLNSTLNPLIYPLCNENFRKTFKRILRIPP
T1 sequence (P47747 whole entry): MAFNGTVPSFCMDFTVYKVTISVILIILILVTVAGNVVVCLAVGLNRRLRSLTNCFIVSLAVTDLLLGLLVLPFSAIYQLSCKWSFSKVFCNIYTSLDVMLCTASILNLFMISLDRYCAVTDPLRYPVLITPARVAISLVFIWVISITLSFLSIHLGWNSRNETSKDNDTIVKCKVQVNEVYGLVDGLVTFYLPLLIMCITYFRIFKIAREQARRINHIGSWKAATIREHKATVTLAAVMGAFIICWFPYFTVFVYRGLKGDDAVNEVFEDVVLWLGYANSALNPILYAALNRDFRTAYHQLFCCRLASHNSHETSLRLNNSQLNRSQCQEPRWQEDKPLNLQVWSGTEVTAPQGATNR

As to `CNC(=NCCCCc1ncc(Br)cc1C)NC#N` [Example 1, N-cyano-N'-methyl-N"-[4-(5-bromo-3-methylpyrid-2-yl)-butyl]-guanidine], the figures for the Kb on histamine H2 -receptor and on histamine H1 -receptor were above 10 µM and below 0.01 µM, respectively.
On to `Cc1cc(Br)cnc1CCCCN=C(NC#N)NCc1ccccc1` [Example 2, N-cyano-N'-benzyl-N"-[4-(5-bromo-3-methylpyrid-2-yl)-butyl]-guanidine], for which the figures for the Kb at histamine H2 -receptor and at histamine H1 -receptor were above 10 µM and below 0.01 µM, respectively.

The values are drawn from US4640926A, “3,5-Substituted-2-pyridylalkylaminothiadiazoles having histamine H1 -antagonist activity” (Smith Kline & French Laboratories Limited, priority 1982, dated 1987).
